This passage reports IC50 results from patent US20250042889A1, “3CLPRO PROTEASE INHIBITOR” (SHANGHAI QILU PHARMACEUTICAL RESEARCH AND DEVELOPMENT …, priority 2021, published 2025).

Molecules are shown by their SMILES. Some results are limits rather than exact numbers.

The experiment deals with SARS-COV-2 3CLpro/Mpro protease (Severe acute respiratory syndrome coronavirus 2 (2019-nCoV) (SARS-CoV-2), UniProt P0DTD1). As to the kind of experiment: Inhibitory effect on SARS-COV-2 3CLpro/Mpro protease by fluorescence resonance energy transfer. The format is biochemical. The settings on record: activity intervals A-D, read-out: IC50 (nM), Inhibition on SARS-CoV-2 3CLpro/Mpro protease.
As for `CNc1cncc(C(=O)N2CC(Nc3c(C(=O)N4C[C@@H](C)O[C@@H](C)C4)cc(Br)cc3[N+](=O)[O-])C(F)(F)C2)c1` (stereo partly drawn) [Example 161], the IC50 was 10 to 50 nM.
Turning to `C[C@@H]1CN(C(=O)c2cc(Br)cc([N+](=O)[O-])c2N[C@@H]2COCC[C@@H]2NC(=O)c2cncc3cc(Cl)ccc23)C[C@H](C)N1` [Example 228], the IC50 was 10 to 50 nM.
With `CNc1cncc(C(=O)N2C[C@H](Nc3c(C(=O)N4C[C@@H](C)O[C@@H](C)C4)cc(Br)cc3[N+](=O)[O-])C[C@H]2C(=O)NC2CNC(=O)C2)c1` (stereo partly drawn) [Example 393], the IC50 was 50 to 100 nM.
Regarding `CNc1cncc(C(=O)N2CCC[C@@H](Nc3c(C(=O)N4CC=C(C)CC4)cc(Br)cc3[N+](=O)[O-])C2)c1` [Example 311], the IC50 fell in the range of 10 to 50 nM.
In the case of `CNc1cncc(C(=O)N2CCC[C@@H](Nc3c(C(=O)N4CCc5oc(C)nc5C4)cc(Br)cc3[N+](=O)[O-])C2)c1` [Example 316], the IC50 is 10 to 50 nM.
Then `O=C(N[C@H]1CCCC[C@H]1Nc1c(C(=O)N2CCC(N3CCOCC3)CC2)cc(Br)cc1C(F)(F)F)c1cncc2cc(Cl)ccc12` [Example 109], with 10 to 50 nM.
Turning to `C[C@@H]1CN(C(=O)c2cc(Br)cc([N+](=O)[O-])c2N[C@@H]2CCCC[C@@H]2NC(=O)c2cncc3cc(Cl)ccc23)C[C@H](C)O1` [Example 113], the IC50 was below 10 nM.
With `CNc1cncc(C(=O)N2CCC[C@@H](Nc3c(C(=O)N4CCN(CCOC)[C@@H](C)C4)cc(Br)cc3[N+](=O)[O-])C2)c1` [Example 247], the IC50 fell in the range of 10 to 50 nM.
On to `CNc1cncc(C(=O)N2C[C@H](Nc3c(C(=O)N4C[C@@H](C)O[C@@H](C)C4)cc(Br)cc3[N+](=O)[O-])C[C@H]2C(=O)Nc2cc(Cl)ncn2)c1` [Example 441, (2S,4R)-4-((4-bromo-2-((2R,6S)-2,6-dimethylmorpholin-4-carbonyl)-6-nitrophenyl)amino)-N-(6-chloropyrimidin-4-yl)-1-(5-(methylamino)nicotinoyl) pyrrolidine-2-formamide], for which the IC50 is 10 to 50 nM.
For `O=C1CN(C(=O)c2cc(Br)cc([N+](=O)[O-])c2N[C@@H]2CCCC[C@@H]2NC(=O)c2cncc3cc(Cl)ccc23)CCN1` [Example 25, N-((1S,2R)-2-((4-bromo-2-nitro-6-(3-oxopiperazin-1-carbonyl)phenyl)amino)cyclohexyl)-7-chloroisoquinolin-4-formamide], the IC50 lay within 10 to 50 nM.
Then `CNc1cncc(C(=O)N2C[C@H](Nc3c(C(=O)N4CCN(CC(F)(F)F)C(=O)C4)cc(Br)cc3[N+](=O)[O-])C3(CC3)C2)c1` [Example 85], with 10 to 50 nM; and `CNc1cncc(C(=O)N2CCC[C@@H](Nc3c(C(=O)N4CCC5(CC4)CCC(C)(C)O5)cc(Br)cc3[N+](=O)[O-])C2)c1` [Example 293], with 10 to 50 nM; and `CNc1cncc(C(=O)N2CC(Nc3c(C(=O)N4CCC5(CCCCC5)CC4)cc(Br)cc3[N+](=O)[O-])C(C)(C)C2)c1` (stereo not drawn) [Example 171], with 10 to 50 nM.
Then `CNc1cncc(C(=O)N2CCC[C@@H](Nc3c(C(=O)N4C[C@@H](C)N(CCOC)[C@@H](C)C4)cc(Br)cc3[N+](=O)[O-])C2)c1` [Example 233], with 50 to 100 nM; and `COCCN1[C@H](C)CN(C(=O)c2cc(Br)cc([N+](=O)[O-])c2N[C@@H]2COCC[C@@H]2NC(=O)c2cncc3ccccc23)C[C@@H]1C` [Example 195], with 10 to 50 nM; and `O=C(c1cc(Br)c[n+]([O-])c1)N1CCC[C@@H](Nc2c(C(=O)N3CCC(F)(F)CC3)cc(Br)cc2[N+](=O)[O-])C1` [Example 105], with 50 to 100 nM.
Then `C[C@@H]1CN(C(=O)c2cc(Br)cc([N+](=O)[O-])c2N[C@@H]2CCCN(C(=O)c3cncc(I)c3)C2)C[C@H](C)N1` [Example 115], with 10 to 50 nM.
Regarding `Cc1cncc(C(=O)N2CCC[C@@H](Nc3c(C(=O)N4CCC(F)(F)CC4)cc(Br)cc3[N+](=O)[O-])C2)c1` [Example 74], the IC50 fell in the range of 50 to 100 nM.
`CNc1cncc(C(=O)N[C@H]2CCCC[C@H]2Nc2c(C(=O)N3CCCCC3)cc(Br)cc2[N+](=O)[O-])c1` [Example 196]: the IC50 fell in the range of 10 to 50 nM.
Take `CNc1cncc(C(=O)N2CCC[C@@H](Nc3c(C(=O)N4Cc5c[nH]nc5C4)cc(Br)cc3[N+](=O)[O-])C2)c1` [Example 278]: the IC50 fell in the range of 10 to 50 nM.
In the case of `O=C(c1cc(Br)cc([N+](=O)[O-])c1N[C@@H]1CCCN(C(=O)c2cc(=O)[nH]c3cc(Cl)ccc23)C1)N1CCOCC1` [Example 117], the IC50 fell in the range of 10 to 50 nM.
For the molecule `CNc1cncc(C(=O)N2CC(Nc3c(C(=O)N4CCCCC4)cc(Br)cc3[N+](=O)[O-])C(C)(C)C2)c1` (stereo not drawn) [Example 186], the IC50 lay in the range of 10 to 50 nM.
`Cc1cc(C(=O)N2CC(Nc3c(C(=O)N4CCC5(CCC5)CC4)cc(Br)cc3[N+](=O)[O-])C(F)(F)C2)cc(=O)[nH]1` (stereo not drawn) [Example 154]: the IC50 lay in the range of 50 to 100 nM.
`CNc1cncc(C(=O)N2CCC[C@@H](Nc3c(C(=O)N4C[C@H](C)O[C@@H](C)C4)cc(Br)cc3[N+](=O)[O-])C2)c1` [Example 213]: the IC50 is 10 to 50 nM.
`CNc1cncc(C(=O)N2CCC[C@@H](Nc3c(C(=O)N4CCc5oncc5C4)cc(Br)cc3[N+](=O)[O-])C2)c1` [Example 309]: the IC50 was in the range of 10 to 50 nM.
For the molecule `CNc1cncc(C(=O)N2CCC[C@@H](Nc3c(C(=O)N4CCCOCC4)cc(Br)cc3[N+](=O)[O-])C2)c1` [Example 305], the IC50 fell in the range of 10 to 50 nM.
Then `CNc1cncc(C(=O)N2C[C@H](Nc3c(C(=O)N4C[C@@H](C)O[C@@H](C)C4)cc(Br)cc3[N+](=O)[O-])C[C@H]2C(=O)Nc2cnoc2)c1` [Example 369, (2S,4R)-4-((4-bromo-2-((2R,6S)-2,6-dimethylmorpholin-4-carbonyl)-6-nitrophenyl)amino)-N-(isoxazol-4-yl)-1-(5-(methylamino)nicotinoyl) pyrrolidin-2-formamide], with 50 to 100 nM; and `CNc1cncc(C(=O)N2CCC[C@@H](Nc3c(C(=O)N4C[C@H](C)O[C@@H](C(F)(F)F)C4)cc(Br)cc3[N+](=O)[O-])C2)c1` [Example 350], with 50 to 100 nM; and `O=C(c1cc(Br)cc([N+](=O)[O-])c1N[C@@H]1CCCN(C(=O)c2cncc3ccccc23)C1)N1CCC(F)(F)CC1` [Example 6, (R)-(5-bromo-2-((1-(isoquinolin-4-carbonyl)piperidin-3-yl)amino)-3-nitrophenyl)(4,4-difluoropiperidin-1-yl)methanone], with below 10 nM.
With `Cc1cc(C(=O)N2CC(Nc3c(C(=O)N4CCC(C)(C)CC4)cc(Br)cc3[N+](=O)[O-])C(F)(F)C2)cc(=O)[nH]1` (stereo not drawn) [Example 155], the IC50 lay within 50 to 100 nM.
As for `COCCN1CCN(C(=O)c2cc(Br)cc([N+](=O)[O-])c2N[C@@H]2CCCN(C(=O)c3cncc(I)c3)C2)CC1` [Example 120], the IC50 is below 10 nM.
Take `CNc1cncc(C(=O)N2CCC[C@@H](Nc3c(C(=O)N4CCC5(CCCCO5)CC4)cc(Br)cc3[N+](=O)[O-])C2)c1` [Example 270]: the IC50 lay in the range of 10 to 50 nM.
Regarding `CNc1cncc(C(=O)N2CCC[C@@H](Nc3c(C(=O)N4CC[C@H](OC)C4)cc(Br)cc3[N+](=O)[O-])C2)c1` [Example 244], the IC50 lay in the range of 10 to 50 nM.
On to `CNc1cncc(C(=O)N2C[C@H](Nc3c(C(=O)N4CCOC(F)(F)C4)cc(Br)cc3[N+](=O)[O-])[C@@H](OC)C2)c1` [Example 375], for which the IC50 lay in the range of 10 to 50 nM.
As for `O=C(N[C@H]1CCCC[C@H]1Nc1c(C(=O)N2CCC3(CC2)COC3)cc(Br)cc1[N+](=O)[O-])c1cncc2cc(Cl)ccc12` [Example 132], the IC50 lay in the range of 10 to 50 nM.
As to `Cc1cc(C(=O)N2CCC[C@@H](Nc3c(C(=O)N4CCN(CC(F)(F)F)CC4)cc(Br)cc3[N+](=O)[O-])C2)cc(=O)[nH]1` [Example 146], the IC50 lay within 10 to 50 nM.
Take `CNc1cncc(C(=O)N2C[C@H](Nc3c(C(=O)N4C[C@@H](C)O[C@@H](C)C4)cc(Br)cc3[N+](=O)[O-])C[C@H]2C(=O)NCc2ccnc(C(F)(F)F)c2)c1` [Example 419]: the IC50 fell in the range of 50 to 100 nM.
Take `CNc1cncc(C(=O)N2C[C@H](Nc3c(C(=O)N4C[C@@H](C)O[C@@H](C)C4)cc(Br)cc3[N+](=O)[O-])[C@@H](OCCOC)C2)c1` [Example 405]: the IC50 lay within 10 to 50 nM.
For `CNc1cncc(C(=O)N2C[C@H](Nc3c(C(=O)N4C[C@@H](C)O[C@@H](C)C4)cc(Br)cc3[N+](=O)[O-])[C@@H](OCc3cncn3C)C2)c1` [Example 462, (5-Bromo-2-(((3S,4S)-4-((1-methyl-1H-imidazol-5-yl)methoxy)-1-(5-(methylamino)nicotinoyl)pyrrolidin-3-yl)amino)-3-nitrophenyl)((2S,6R)-2,6-dimethylmorpholinyl)methanone], the IC50 was 10 to 50 nM.
Then `O=C(c1cc(Br)cc([N+](=O)[O-])c1N[C@@H]1CCCN(C(=O)c2cncc3ccccc23)C1)N1CCCCC1` [Example 13, (R)-(5-bromo-2-((1-(isoquinolin-4-carbonyl)piperidin-3-yl)amino)-3-nitrophenyl)(piperidin-1-yl)methanone], with below 10 nM.
Turning to `O=C(N[C@H]1CCCC[C@H]1Nc1c(C(=O)N2CCC(F)(F)CC2)cc(Br)cc1[N+](=O)[O-])c1cc(=O)[nH]c2ccccc12` [Example 16, N-((1S,2R)-2-((4-bromo-2-(4,4-difluoropiperidin-1-carbonyl)-6-nitrophenyl)amino)cyclohexyl)-2-oxo-1,2-dihydroquinolin-4-formamide], the IC50 fell in the range of 10 to 50 nM.
Regarding `CNc1cncc(C(=O)N2C[C@H](Nc3c(C(=O)N4C[C@@H](C)O[C@@H](C)C4)cc(Br)cc3[N+](=O)[O-])C[C@H]2C(=O)Nc2cn(C)nc2Br)c1` [Example 412], the IC50 was in the range of 50 to 100 nM.
As to `CNc1cncc(C(=O)N2C[C@H](Nc3c(C(=O)N4C[C@@H](C)O[C@@H](C)C4)cc(Br)cc3[N+](=O)[O-])CC2C#N)c1` (stereo in doubt) [Example 362], the IC50 lay in the range of 50 to 100 nM.
As for `CNc1cncc(C(=O)N2C[C@H](Nc3c(C(=O)N4C[C@@H](C)O[C@@H](C)C4)cc(Br)cc3[N+](=O)[O-])C[C@H]2C(=O)N[C@H]2CC(=O)N(C)C2)c1` [Example 437], the IC50 is 50 to 100 nM.
Turning to `CNc1cncc(C(=O)N[C@H]2CCCC[C@H]2Nc2c(C(=O)N3C[C@@H](C)O[C@@H](C)C3)cc(Br)cc2[N+](=O)[O-])c1` [Example 198], the IC50 was in the range of 10 to 50 nM.
